Measured values as given in patent US20150038438A1, “ANTIBACTERIAL COMPOUNDS AND METHODS FOR USE” (PTC THERAPEUTICS, INC., priority 2011, published 2015).

Experiments:
Assay in all cases: Antibacterial activity, microbroth dilution method (MIC)
[1] = system: control Gram-negative E. coli 25922 strain; format: cell-based, Escherichia coli; settings: Escherichia coli
From the text: (§1) The antibacterial activity from a microbroth dilution method may be presented as the minimum inhibitory concentration (MIC in μg/mL). The MIC value is the lowest concentration of drug which prevents macroscopically visible growth under test conditions.
(§2) Antibacterial activity of test compounds against the super sensitive Gram-negative Escherichia coli (E. coli) BAS849 bacterium, the control Gram-negative E. coli 25922 strain and the Gram-positive Staphylococcus aureus (S. aureus) 29213 bacterium are shown in Table 1.

[2] = system: Gram-positive Staphylococcus aureus (S. aureus) 29213; format: cell-based; settings: Staphylococcus aureus, Gram-positive S. aureus 29213
From the text: as §1, §2

[3] = system: super sensitive Gram-negative Escherichia coli (E. coli) BAS849; format: cell-based; settings: Escherichia coli; super sensitive Gram-negative E. coli BAS849; microbroth dilution; read-out: MIC, E. coli BAS849
From the text: as §1, §2

SMILES	MIC [1] [µg/mL]	MIC [2] [µg/mL]	MIC [3] [µg/mL]
CCN(CC)Cc1cc2cc3c(cc2n1C)CCCc1c-3[nH]c(=O)c(C(=O)O)c1O.Cl [Cpd 43, 10-((diethylamino)methyl)-4-hydroxy-9-methyl-2-oxo-1,2,5,6,7,9-hexahydropyrido[3′,2′:6,7]cyclohepta[1,2-f]indole-3-carboxylic acid hydrochloride]	1 to 3.5	3.5 to 12.5	< 1
CCCNCc1cc2cc3c(cc2n1C)CCCc1c-3[nH]c(=O)c(C(=O)O)c1O.Cl [Cpd 44, 4-hydroxy-9-methyl-2-oxo-10-((propylamino)methyl)-1,2,5,6,7,9-hexahydropyrido[3′,2′:6,7]cyclohepta[1,2-f]indole-3-carboxylic acid hydrochloride]	< 1	3.5 to 12.5	< 1
C#CCNCc1cc2cc3c(cc2n1C)CCCc1c-3[nH]c(=O)c(C(=O)O)c1O.Cl [Cpd 45, 4-hydroxy-9-methyl-2-oxo-10-((prop-2-yn-1-ylamino)methyl)-1,2,5,6,7,9-hexahydropyrido[3′,2′:6,7]cyclohepta[1,2-f]indole-3-carboxylic acid hydrochloride]	1 to 3.5	1 to 3.5	< 1
Cl.Cn1c(CN2CC[C@@H](F)C2)cc2cc3c(cc21)CCCc1c-3[nH]c(=O)c(C(=O)O)c1O [Cpd 46, (R)-10-((3-fluoropyrrolidin-1-yl)methyl)-4-hydroxy-9-methyl-2-oxo-1,2,5,6,7,9-hexahydropyrido[3′,2′:6,7]cyclohepta[1,2-f]indole-3-carboxylic acid hydrochloride]	1 to 3.5	3.5 to 12.5	< 1
CN(C)C1CCN(Cc2cc3cc4c(cc3n2C)CCCc2c-4[nH]c(=O)c(C(=O)O)c2O)C1.Cl.Cl (stereo not drawn) [Cpd 47, 10-((3-(dimethylamino)pyrrolidin-1-yl)methyl)-4-hydroxy-9-methyl-2-oxo-1,2,5,6,7,9-hexahydropyrido[3′,2′:6,7]cyclohepta[1,2-f]indole-3-carboxylic acid dihydrochloride]	3.5 to 12.5	3.5 to 12.5	< 1
CN(C)Cc1cc2cc3c(cc2n1C)CCCc1c-3[nH]c(=O)c(C(=O)O)c1O.Cl [Cpd 48, 10-((dimethylamino)methyl)-4-hydroxy-9-methyl-2-oxo-1,2,5,6,7,9-hexahydropyrido[3′,2′:6,7]cyclohepta[1,2-f]indole-3-carboxylic acid hydrochloride]	< 1	3.5 to 12.5	< 1
Cl.Cl.Cn1c(CN2CC[C@H](N)C2)cc2cc3c(cc21)CCCc1c-3[nH]c(=O)c(C(=O)O)c1O [Cpd 49, (S)-10-((3-aminopyrrolidin-1-yl)methyl)-4-hydroxy-9-methyl-2-oxo-1,2,5,6,7,9-hexahydropyrido[3′,2′:6,7]cyclohepta[1,2-f]indole-3-carboxylic acid dihydrochloride]	3.5 to 12.5	12.5 to 150	1 to 3.5
Cl.Cn1c(CN2CCCC2)cc2cc3c(cc21)CCCc1c-3[nH]c(=O)c(C(=O)O)c1O [Cpd 50, 4-hydroxy-9-methyl-2-oxo-10-(pyrrolidin-1-ylmethyl)-1,2,5,6,7,9-hexahydropyrido[3′,2′:6,7]cyclohepta[1,2-f]indole-3-carboxylic acid hydrochloride]	< 1	3.5 to 12.5	< 1
Cl.Cn1c(CN2CCC(O)C2)cc2cc3c(cc21)CCCc1c-3[nH]c(=O)c(C(=O)O)c1O (stereo not drawn) [Cpd 51, 4-hydroxy-10-((3-hydroxypyrrolidin-1-yl)methyl)-9-methyl-2-oxo-1,2,5,6,7,9-hexahydropyrido[3′,2′:6,7]cyclohepta[1,2-f]indole-3-carboxylic acid hydrochloride]	1 to 3.5	3.5 to 12.5	< 1
Cl.Cn1c(CNCc2cccnc2)cc2cc3c(cc21)CCCc1c-3[nH]c(=O)c(C(=O)O)c1O [Cpd 52, 4-hydroxy-9-methyl-2-oxo-10-(((pyridin-3-ylmethyl)amino)methyl)-1,2,5,6,7,9-hexahydropyrido[3′,2′:6,7]cyclohepta[1,2-f]indole-3-carboxylic acid hydrochloride]	3.5 to 12.5	3.5 to 12.5	< 1
CNCc1cc2cc3c(cc2n1C)CCCc1cc(C(=O)O)c(=O)[nH]c1-3.Cl [Cpd 53, 9-methyl-10-((methylamino)methyl)-2-oxo-1,2,5,6,7,9-hexahydropyrido[3′,2′:6,7]cyclohepta[1,2-f]indole-3-carboxylic acid hydrochloride]	1 to 3.5	12.5 to 150	< 1
CCNCc1cc2cc3c(cc2n1C)CCCc1cc(C(=O)O)c(=O)[nH]c1-3.Cl [Cpd 54, 10-((ethylamino)methyl)-9-methyl-2-oxo-1,2,5,6,7,9-hexahydropyrido[3′,2′:6,7]cyclohepta[1,2-f]indole-3-carboxylic acid hydrochloride]	< 1	12.5 to 150	< 1
CC(C)NCc1cc2cc3c(cc2n1C)CCCc1cc(C(=O)O)c(=O)[nH]c1-3.Cl [Cpd 55, 10-((isopropylamino)methyl)-9-methyl-2-oxo-1,2,5,6,7,9-hexahydropyrido[3′,2′:6,7]cyclohepta[1,2-f]indole-3-carboxylic acid hydrochloride]	1 to 3.5	12.5 to 150	< 1
Cl.Cn1c(CNC(C)(C)C)cc2cc3c(cc21)CCCc1cc(C(=O)O)c(=O)[nH]c1-3 [Cpd 56, 10-((tert-butylamino)methyl)-9-methyl-2-oxo-1,2,5,6,7,9-hexahydropyrido[3′,2′:6,7]cyclohepta[1,2-f]indole-3-carboxylic acid hydrochloride]	1 to 3.5	12.5 to 150	< 1
Cl.Cn1c(CN2CCC2)cc2cc3c(cc21)CCCc1cc(C(=O)O)c(=O)[nH]c1-3 [Cpd 57, 10-(azetidin-1-ylmethyl)-9-methyl-2-oxo-1,2,5,6,7,9-hexahydropyrido[3′,2′:6,7]cyclohepta[1,2-f]indole-3-carboxylic acid hydrochloride]	< 1	12.5 to 150	< 1
CNCc1cc2cc3c(cc2n1C)CCCCc1c-3[nH]c(=O)c(C(=O)O)c1O.Cl [Cpd 58, 4-hydroxy-10-methyl-11-((methylamino)methyl)-2-oxo-2,5,6,7,8,10-hexahydro-1H-pyrido[3′,2′:7,8]cycloocta[1,2-f]indole-3-carboxylic acid hydrochloride]	< 1	3.5 to 12.5	< 1
CCNCc1cc2cc3c(cc2n1C)CCCCc1c-3[nH]c(=O)c(C(=O)O)c1O.Cl [Cpd 59, 11-((ethylamino)methyl)-4-hydroxy-10-methyl-2-oxo-2,5,6,7,8,10-hexahydro-1H-pyrido[3′,2′:7,8]cycloocta[1,2-f]indole-3-carboxylic acid hydrochloride]	< 1	3.5 to 12.5	< 1
CNCc1cc2c3c(ccc2n1C)-c1[nH]c(=O)c(C(=O)O)c(O)c1CCC3.Cl [Cpd 60, 7-hydroxy-1-methyl-2-((methylamino)methyl)-9-oxo-1,4,5,6,9,10-hexahydropyrido[2′,3′:3,4]cyclohepta[1,2-e]indole-8-carboxylic acid hydrochloride]	12.5 to 150	12.5 to 150	3.5 to 12.5
CCNCc1cc2c3c(ccc2n1C)-c1[nH]c(=O)c(C(=O)O)c(O)c1CCC3.Cl [Cpd 61, 2-((ethylamino)methyl)-7-hydroxy-1-methyl-9-oxo-1,4,5,6,9,10-hexahydropyrido[2′,3′:3,4]cyclohepta[1,2-e]indole-8-carboxylic acid hydrochloride]	3.5 to 12.5	12.5 to 150	3.5 to 12.5
CNCc1cc2cc3c(cc2n1C)C(C)CCc1c-3[nH]c(=O)c(C(=O)O)c1O.Cl (stereo not drawn) [Cpd 62, 4-hydroxy-7,9-dimethyl-10-((methylamino)methyl)-2-oxo-1,2,5,6,7,9-hexahydropyrido[3′,2′:6,7]cyclohepta[1,2-f]indole-3-carboxylic acid hydrochloride]	3.5 to 12.5	12.5 to 150	1 to 3.5
CCNCc1cc2cc3c(cc2n1C)C(C)CCc1c-3[nH]c(=O)c(C(=O)O)c1O.Cl (stereo not drawn) [Cpd 63, 10-((ethylamino)methyl)-4-hydroxy-7,9-dimethyl-2-oxo-1,2,5,6,7,9-hexahydropyrido[3′,2′:6,7]cyclohepta[1,2-f]indole-3-carboxylic acid hydrochloride]	3.5 to 12.5	12.5 to 150	1 to 3.5
CC(C)NCc1cc2cc3c(cc2n1C)C(C)CCc1c-3[nH]c(=O)c(C(=O)O)c1O.Cl (stereo not drawn) [Cpd 64, 4-hydroxy-10-((isopropylamino)methyl)-7,9-dimethyl-2-oxo-1,2,5,6,7,9-hexahydropyrido[3′,2′:6,7]cyclohepta[1,2-f]indole-3-carboxylic acid hydrochloride]	3.5 to 12.5	12.5 to 150	1 to 3.5
CC1CCc2c([nH]c(=O)c(C(=O)O)c2O)-c2cc3cc(CNC(C)(C)C)n(C)c3cc21.Cl (stereo not drawn) [Cpd 65, 10-((tert-butylamino)methyl)-4-hydroxy-7,9-dimethyl-2-oxo-1,2,5,6,7,9-hexahydropyrido[3′,2′:6,7]cyclohepta[1,2-f]indole-3-carboxylic acid hydrochloride]	3.5 to 12.5	3.5 to 12.5	1 to 3.5
CC1CCc2c([nH]c(=O)c(C(=O)O)c2O)-c2cc3cc(CNC4(C)CC4)n(C)c3cc21.Cl (stereo not drawn) [Cpd 66, 4-hydroxy-7,9-dimethyl-10-(((1-methylcyclopropyl)amino)methyl)-2-oxo-1,2,5,6,7,9-hexahydropyrido[3′,2′:6,7]cyclohepta[1,2-f]indole-3-carboxylic acid hydrochloride]	12.5 to 150	3.5 to 12.5	1 to 3.5
